Results: US9320722B2, “Regulators of aldehyde dehydrogenase ALDH3A1 and related therapeutic methods” (Indiana University Research and Technology Corporation, priority 2013, dated 2016)

Experiments:
CCD13Lu cells = assay: MTT assay for cell proliferation / mafosfamide sensitivity, CCD13Lu; format: cell-based; conditions: 10 μM compound + mafosfamide, FIG. 13c
SF767 cells = assay: MTT assay for cell proliferation / mafosfamide sensitivity, SF767; format: cell-based; conditions: 10 μM inhibitor + mafosfamide

## Cc1ccc(S(=O)(=O)n2c(C)nc3ccccc32)cc1 [Compound A10]
CCD13Lu cells
  effect with mafosfamide (in words), CCD13Lu: decreased cell proliferation
SF767 cells
  chemosensitivity to mafosfamide (in words), SF767: significantly increased chemosensitivity
